The values below come from patent US7422867B2, “Methods of identifying compounds that modulate IL-4 receptor mediated IgE synthesis utilizing a CLLD8 protein” (Rigel Pharmaceuticals, Inc., priority 2002, dated 2008).

Test [1] deals with IL-4 induced germline ε transcription (ε promoter reporter in A5T4 cells). Kind of test: Re-infection (DNA transfer) assay in naïve A5T4 reporter cells; functional profile of mutants. The settings on record: for Reporter Ratio: screening in the A5T4 reporter line, wild type and mutants. Type of test: cell-based, human. The method, then:
The ability of peptide CL02A3 wt to inhibit germline ε transcription was confirmed in naïve cells. Briefly, Phoenix cells were transfected with a retroviral vector encoding a BFP-CL02A3 wt peptide fusion as described in WO 99/58663 and WO 97/27213. Naïve A5T4 cells were infected with the resultant virions and grown for 3 days. The infected cells were stimulated with IL-4 (60 U/mL) and, after 3 days, the cells were assessed by FACS for BFP and GFP.
A collection of CL02A3 mutants was generated by replacing single or double amino acid residues in the sequence of CL02A3 wt with a different amino acid, typically an alanine or glycine, as described in copending application Ser. No. 10/095,659, entitled Methods of Identifying Protein Targets, filed Mar. 8, 2002. The functional profiles for the mutants derived from CL02A3 wt was obtained by constructing and screening for activity in the A5T4 reporter cell line in the manner described above. The activity of each mutant at the germline ε promoter is reflected in the reporter ratio, as described above. The reporter ratios were the functional values that were used to develop the functional profiles.
TABLE 2 depicts the amino acid sequences (the dual alanine mutations are underlined) of the mutants tested and the measured reporter ratios when screening in the A5T4 reporter line.
Comparison of the interaction and functional profiles was performed by categorizing the mutants of CL02A3 based on the functional and interaction assays. Based on the reporter ratio, described in panel C of FIG. 4, each mutant was categorized into one of four functional categories: (1) reduction of function (ROF); (2) loss of function (LOF); (3) increase of function (IOF) or (4) functionally neutral (N), as compared to the activity of the wild type peptide, here CL02A3 wt. As mentioned previously, cells expressing a peptide that inhibits germline ε transcription have reporter ratios of ≧1.1. Cells expressing a loss of function mutant have a reporter ratio of […]. […] Functionally neutral mutants have reporter ratios that fall within ±50% of that of the CL02A3 wt peptide. The % increase or decrease in reporter ratio is calculated after subtracting 1.0 from the individual ratios. Using these criteria, peptides CL02A3LG (SEQ ID NO:2), CL02A3TP (SEQ ID NO:4), and CL02A3EQ (SEQ ID NO:5) were designated as IOF mutants, peptide CL02A3LGW (SEQ ID NO:3), CL02A3HH (SEQ ID NO:8), CL02A3PW (SEQ ID NO:9) were designated as ROF mutants, peptides CL02A3HG (SEQ ID NO:6), and CL02A3GC (SEQ ID NO:7) were designated as neutral, and peptide CL02A3AM (SEQ ID NO:10) was designated as a LOF mutant.

Test [2] addresses T1, human CLLD8 protein (hCLLD8) (Homo sapiens, UniProt Q96T68, E117G/V473M).
T1 construct: expressed in transfected cells; prey cDNA came from a library of the A5T4 (BJAB-derived human B-cell) reporter line
T1 sequence (Q96T68 1-719 E117G/V473M): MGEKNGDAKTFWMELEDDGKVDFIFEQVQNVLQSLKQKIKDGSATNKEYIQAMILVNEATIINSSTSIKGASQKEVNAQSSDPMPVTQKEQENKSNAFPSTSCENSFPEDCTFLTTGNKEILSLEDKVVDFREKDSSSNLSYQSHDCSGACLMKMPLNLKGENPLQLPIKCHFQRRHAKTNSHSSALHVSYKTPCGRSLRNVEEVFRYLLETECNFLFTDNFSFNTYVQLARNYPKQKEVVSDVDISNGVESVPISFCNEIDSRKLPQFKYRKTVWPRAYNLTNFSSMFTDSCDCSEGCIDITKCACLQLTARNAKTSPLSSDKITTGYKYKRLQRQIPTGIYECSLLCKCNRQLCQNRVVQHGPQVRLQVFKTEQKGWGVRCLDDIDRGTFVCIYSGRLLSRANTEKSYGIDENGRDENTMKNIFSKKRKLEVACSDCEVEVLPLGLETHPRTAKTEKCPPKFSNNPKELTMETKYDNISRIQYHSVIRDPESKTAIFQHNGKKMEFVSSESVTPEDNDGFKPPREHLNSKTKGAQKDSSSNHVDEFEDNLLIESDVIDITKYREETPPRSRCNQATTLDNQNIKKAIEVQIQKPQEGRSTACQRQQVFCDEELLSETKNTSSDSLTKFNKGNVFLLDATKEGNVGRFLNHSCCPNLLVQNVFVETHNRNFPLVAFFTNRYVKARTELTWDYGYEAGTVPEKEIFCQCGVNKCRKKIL
Kind of test: β-galactosidase yeast two hybrid (YTH) interaction assay. Type of test: binding. As for the experimental part:
Potential binding partners for peptide CL02A3 wt were identified in a β-galactosidase yeast two-hybrid (YTH) assay using peptide CL02A3 wt as bait and a cDNA library constructed from the A5T4 reporter cell line as prey. Binding was assessed by β-galactosidase quantification using BetaFluor (Novagen) as a substrate. A negative interaction control (no cDNA fused downstream of the GAL4 activation domain sequence) was also run. A general outline of the YTH assay is illustrated in FIG. 5A. Following clustering, filtering to remove non-specific bait hits (e.g., GFP and BFP), singletons and clusters recognized by 10 or more cDNA baits (based upon historical YTH assays), and prioritization, 64 prey clones were identified as hits.
Potential targets identified in the YTH assay were reconfirmed as generally outlined in FIG. 6. The cDNA clones identified as hits in the YTH assay were purified and rescreened for interaction with the CL02A3 wt peptide in a YTH assay. The hit clones were also screened in a control assay for interaction with the BFP using a vector (pGBKT7) that contained only the BFP and not the CL02A3 peptide. At this stage, 51 putative target clones remained.
The interaction of CL02A3 wt peptide and its mutants with the clones identified as potential targets for the peptide CL02A3 wt was then quantified in a β-galactosidase YTH assay. The YTH assay was performed in the manner described above. A general outline of this YTH assay is illustrated in FIG. 5B. For each clone tested, an interaction profile was developed by comparing the β-galactosidase activity of each mutant to that of the wild type peptide, as described above.
The interaction of these IOF, ROF and LOF mutants with different polypeptides encoded by the putative target clones were quantified using the YTH assay described above. […]

For test [3], the system named is endogenous germline α promoter. The test can be described thus: TAQMAN assay of endogenous germline α promoter transcription in ST486 cells. It is filed as cell-based. To be noted: ST486 cells stimulated with TGF-β 40 ng/ml; average of 3 values. As for the experimental part: The assay was similar to that described in the immediately preceding section, except that ST486 cells (ATCC # CRL-1647) engineered to express the tetracycline-regulated transactivator were infected and the infected cells were stimulated with TGF-β (40 ng/ml; Peprotech). The primers and probe, which are specific for the transcription product driven by the ST486 endogenous α promoter, were as follows (the probe was labeled at the 5′-end with Fam and at the 3′-end with Tamra): […]

Regarding “AMAAHHGWPWGMEQGCTPLG (peptide encoded by synthetic oligomer) [CL02A3HG]”, the “Reporter Ratio” value in test [1] is listed as 1.5.
On the same count and under the same terms, the figure for “AMHGAAGWPWGMEQGCTPLG (peptide encoded by synthetic oligomer) [CL02A3HH]” is 1.29.
For the sequence “AMHGHHAAPWGMEQGCTPLG (peptide encoded by synthetic oligomer) [CL02A3GW]”, the “binding to human CLLD8 protein in yeast two hybrid interaction assay” value (from here on “binding to human CLLD8 protein”) in test [2] is recorded as “found to bind”.
For the sequence “AMHGHHGWAAGMEQGCTPLG (peptide encoded by synthetic oligomer) [CL02A3PW]”, the “Reporter Ratio” value in test [1] is reported as 1.24.
For “AMHGHHGWPWGMAAGCTPLG (peptide encoded by synthetic oligomer) [CL02A3EQ]”, in test [1], the “Reporter Ratio” value is recorded as 2.23,.
Still for that read-out and setting: the result for “AMHGHHGWPWGMEQAATPLG (peptide encoded by synthetic oligomer) [CL02A3GC]” reads 1.89; that for “AMHGHHGWPWGMEQGCAALG (peptide encoded by synthetic oligomer) [CL02A3TP]”, 1.91.
On to “AMHGHHGWPWGMEQGCTPAA (peptide encoded by synthetic oligomer) [CL02A3LG]”, for which the “binding to human CLLD8 protein” value in test [2] was “found to bind”.
“AMHGHHGWPWGMEQGCTPLG (peptide encoded by synthetic oligomer) [CL02A3wt]”: the “endogenous α inhibition ratio” value in test [3] is 0.89. The “binding to human CLLD8 protein” value in test [2] is “found to bind”.
Regarding “RAHGHHGWPWGMEQGCTPLG (peptide encoded by synthetic oligomer) [CL02A3AM]”, the “functional category compared to CL02A3 wt, based on reporter ratio” value in test [1] (% change calculated after subtracting 1.0 from the ratios) was “LOF (Cells expressing a loss of function mutant have a reporter ratio of <1.11)”.
